# Measurements taken from US20240399142A1, “Methods Of Using Alternating Electric Fields And Checkpoint Inhibitors” (NOVOCURE GMBH, priority 2023, published 2024).
# Test system: patients with metastatic NSCLC progressing on or after platinum therapy
# Experiment: LUNAR phase 3 randomized study: overall survival, progression-free survival, radiological response
# Procedure: LUNAR was a prospective, phase 3, randomized, open-label, parallel study (EF-24; NCT02973789) of TTFields (150 kHz) therapy concomitant with standard-of-care systemic therapy (docetaxel or investigator's choice immune checkpoint inhibitor) in patients with metastatic NSCLC progressing on or after platinum therapy. LUNAR was conducted at 124 sites across 17 countries in North America, Europe, and Asia (Table Si) between February 2017 and November 2021.
# Eligible participants were adults (≥22 years of age) with a histological or cytological diagnosis of metastatic NSCLC that had shown radiological progression while on or after platinum-based systemic therapy (prior ICI permitted). Other than maintenance therapy, the most recent systemic therapy administered for advanced NSCLC was platinum-therapy. […]
# Eligible patients were randomly assigned 1:1 (within 28 days of providing informed consent) to receive TTFields therapy to the thorax concomitant with investigator's choice of standard therapy (an immune checkpoint inhibitor [nivolumab, pembrolizumab, or atezolizumab] or docetaxel). Randomization was determined centrally using variable blocked randomization and an IxRS system, and stratified by tumor histology, treatment (docetaxel or an immune checkpoint inhibitor), and region (North America, Western Europe/Israel, and Eastern Europe). […]
smiles,measurement,setting,value
"CC(=O)O[C@@]12CO[C@@H]1C[C@H](O)[C@@]1(C)C(=O)[C@H](O)C3=C(C)[C@@H](OC(=O)[C@H](O)[C@@H](NC(=O)OC(C)(C)C)c4ccccc4)C[C@@](O)([C@@H](OC(=O)c4ccccc4)[C@H]21)C3(C)C [Docetaxel, docetaxel]",one-year survival rate,docetaxel subgroup,39.4%
same,median overall survival,subgroup receiving docetaxel,8.9 months
